Legend:
[1] = White, Lancet 1989; cited from earlier work
[2] = tested on: streptozotocin-diabetic rats; assay: Other signs of diabetes (hyperglycemia, glucosuria, polyuria) in diabetic rats (Example III); format: in vivo, rat
Experimental: (§1) Streptozotocin-diabetic rats were treated by the daily oral administration of 20 mg minocycline/rat/day over a 4-week period. At the end of the protocol, 24-hour urines were collected to measure protein excretion.

[3] = tested on: streptozotocin-diabetic rats; assay: Proteinuria: urine protein excretion in diabetic rats (Example III, FIG. 4); format: in vivo, rat; details: 4 weeks
Experimental: Example III was carried out to determine the effect of tetracycline therapy on proteinuria, a parameter of renal damage, in diabetic rats.
as §1

skin collagen [4] = assay: Glycosylation of diabetic rat skin collagen (Example V, Table IV); format: in vivo, Sprague-Dawley rat; details: 5 mg daily oral gavage, 21 days; for mM Fructosamine/mg protein (Mean ± SE): NDC 0.027, untreated diabetic 0.377; for Reduction of glycosylation in treated diabetics (%): vs untreated diabetic control
Experimental: (§2) All animals were weighed weekly.
The subcutaneous muscle layer was removed leaving essentially the dermis. The dermis (skin connective tissue) samples were minced, then homogenized in phosphate buffered saline (4° C.). Following centrifugation (at 9000 rpm, 4° C., 30 min.) of the homogenates, the supernatants were discarded. The pellets were repeatedly washed, then resuspended and extracted at 4° C. overnight in chloroform/methanol to remove lipids. The de-lipidized tissue samples were then washed in 100% methanol, then in 50% methanol. Following the methanol washes, the samples were washed with HEPES buffer (pH 7.4). The skin connective tissue samples (100 mg of each sample) were incubated at 37° C. (24 hours) with chromatographically-purified bacterial collagenase. After 24 hours the reaction mixture was centrifuged at 7000 rpm, room temperature for 30 minutes. Following centrifugation, the supernatants containing the digested collagen were collected. Aliquots of the supernatants were analyzed for glycosylated collagen using a modification of the Isolab Glyco-PROBE™ GSP assay kit. The assay is designed to measure glucose bound to protein which was then converted by Amadori rearrangement to fructosamine. For purposes of the present invention, the sample total protein was increased to compensate for low levels of glycosylated collagen compared to glycosylated serum proteins.

serum proteins [5] = assay: Glycosylated serum protein (GSP) in diabetic rats (Example V, FIG. 7); details: 5 mg daily oral gavage, 21 days; vs untreated diabetics, p<0.005
Experimental: Fifty-two adult male Sprague-Dawley rats were divided into eight groups, each consisting of 5-7 animals. Diabetes was induced by I.V. administration of streptozotocin in all rats, except the non-diabetic control group (7 rats). […] All animals were weighed weekly. Following general anesthesia by halothane inhalation, blood samples were collected by cardiac puncture. Blood samples were analyzed for serum glucose and glycosylated serum protein (GSP) levels. As previously mentioned, glycosylated serum protein levels were measured using the Isolab Glyco-PROBE™ GSP (glycosylated serum protein) assay kit.

gelatinase = assay: Gelatinase activity in skin of diabetic rats (Example V, FIG. 9); format: in vivo, Sprague-Dawley rat; details: 5 mg daily oral gavage, 21 days; p<0.001 for normalization
Experimental: as §2
In particular, all dissection and extraction procedures were carried out at 4° C. unless otherwise indicated. […] The extracts of the diseased tissue were then concentrated 5-fold and aliquots were incubated (a) with [^3 H-methyl] gelatin (denatured type I rat skin collagen ) at 37° C. for 4hours to measure gelatinase activity. The undigested gelatin was precipitated with trichloroacetic acid, and after centrifugation, aliquots of the degradation products in the supernatants were measured in a liquid scintillation spectrometer (in addition to this lysis assay, the different molecular forms of gelatinase were assessed by zymography); (b) with [^3 H-methyl] collagen for 18 hours at 27° C. and the collagen degradation fragments in the supernatants were analyzed with a liquid scintillation spectrometer to measure collagenase activity.

collagenase [6] = details: in vitro (Golub, et al., 1991) and in vivo; cited from earlier work
collagenase [7] = assay: Collagenase activity in skin of diabetic rats (Example V, FIG. 8); format: in vivo, Sprague-Dawley rat; details: 5 mg daily oral gavage, 21 days; p<0.001 for normalization
Experimental: as §2
In particular, all dissection and extraction procedures were carried out at 4° C. unless otherwise indicated. For MMP analysis, the tissues were minced, weighed, extracted, and the extracts partially purified by ammonium sulfate precipitation using techniques described previously (Ramamurthy and Golub, J. Periodontal Res. 17, 455, (1983)). The extracts of the diseased tissue were then concentrated 5-fold and aliquots were incubated (a) with [^3 H-methyl] gelatin (denatured type I rat skin collagen ) at 37° C. for 4hours to measure gelatinase activity. The undigested gelatin was precipitated with trichloroacetic acid, and after centrifugation, aliquots of the degradation products in the supernatants were measured in a liquid scintillation spectrometer (in addition to this lysis assay, the different molecular forms of gelatinase were assessed by zymography); (b) with [^3 H-methyl] collagen for 18 hours at 27° C. and the collagen degradation fragments in the supernatants were analyzed with a liquid scintillation spectrometer to measure collagenase activity. In addition, the radiolabeled collagen components (α chains) and degradation fragments (α^A) were assessed by a combination of SDS-polyacrylamide gel electrophoresis and fluorography as described previously (Golub et al. J. Periodontal Res. 20, 12 (1985).

[8] = Wong et al. 1984, cited from earlier work
collagen = details: diabetes in rats; Brownlee et al. 1986; cited from earlier work
serum protein = assay: Glycosylated serum proteins in diabetic rats (Example IV, FIG. 5); format: in vivo, Sprague-Dawley rat; details: 5 mg daily oral gavage, 21 days; effect p<0.05
Excerpt: (Control vs. Diabetic p<0.01, Diabetic vs. Diabetic treated with Doxycycline p<0.05, Diabetic vs. Diabetic treated with CMT-1 (4-dedimethyiaminotetracycline) p<0.05).
(§3) Sixteen adult male sprague-Dawley rats, each weighing approximately 350 grams, were divided into four groups 0f four animals per group.

skin collagen [9] = assay: Glycosylation of skin collagen in diabetic rats, anthrone method (Example IV, FIG. 6); format: in vivo, Sprague-Dawley rat; details: 5 mg daily oral gavage, 21 days; effect p<0.05
Experimental: as §3
In addition, the entire skin was dissected from each rat. Samples containing 100mg of each skin were suspended in a Tris-HCl buffer containing 5mM CaCl2 and chromatographically-purified bacterial collagenase and incubated at 37° C. for 4 hours. Following incubation all samples were centrifugated at 35,000×G and the supernatants containing the skin collagen fragments were collected. The skin digest supernatants were analyzed for (1) carbohydrate-attached-to-collagen by the anthrone method, as described by Halhoul and Kleinberg ([…]) Anal. Biochem. 50: 337-343 and (2) total protein using the BioRad Assay, BioRad Chemical Division, Richmond, Calif.

diabetic rats = details: Golub et al. 1990; cited from earlier work
serum proteins [10] = assay: Serum fructosamine (glycosylated serum protein), 14 weeks doxycycline (Example II, Table III); format: in vivo; details: 2 mg/rat/day oral
Experimental: Three groups of rats were established: a non-diabetic control group, an untreated streptozotocin-diabetic group and a streptozotocin-diabetic group treated orally with 2 mg doxycycline/rat/day over the 14-week time period. At the end of the 14 weeks, blood samples were collected from each rat arid the serum was measured for glycosylated protein using an assay which is based on the ability of glucose to non-enzymatically bind to proteins by a ketoamine crosslink to form fructosamine. During the assay, the glucose bound to the protein through a ketoamine chemical bond reduces a tetrazolium dye under alkaline conditions producing a color change which is measured spectrophotometrically. Armbruster, Clin. Chem., 33: 2153-2163 (1987). A fructosamine assay kit is available from Isolab Inc., Akron, Ohio 44321.
In particular, the serum samples were centrifuged to remove lipids. The clarified serum samples were treated with a reagent to remove ascorbic acid and other interfering substances. The treated Serum samples were then incubated for a fixed period of time, with the fructosamine-bicarbonate reagent (tetrazolium salt), and absorbance was measured at a wavelength of 500 nm in a spectrophotometer. The data was analyzed statistically.

CN(C)c1ccc(O)c2c1C[C@H]1C[C@H]3[C@H](N(C)C)C(O)=C(C(N)=O)C(=O)[C@@]3(O)C(O)=C1C2=O [Minocycline]
effectiveness in dystrophic epidermolysis bullosa [1]: effective in treating dystrophic epidermolysis bullosa
other signs of diabetes including hyperglycemia, glucosuria and polyuria [2]: Neither treatment with minocycline nor CMT-1 reduced the other signs of diabetes
urine protein excretion ([3]; 20 mg minocycline/rat/day oral, normal 48, untreated diabetics 280): 52 mg/24 hr
development of proteinuria ([3]; 20 mg/rat/day oral): completely prevented the development of proteinuria

NC(=O)C1=C(O)C2(O)C(=O)C3=C(O)c4c(O)cccc4CC3CC2CC1=O (stereo not drawn) [CMT-3, 6-demethyl-6-deoxy-4-dedimethylaminotetracycline]
mM Fructosamine/mg protein (Mean ± SE) (skin collagen [4]): 0.186 ± 0.048 mM Fructosamine/mg protein
Reduction of glycosylation in treated diabetics (%) (skin collagen [4]): 50.7%

C[C@H]1c2cccc(O)c2C(O)=C2C(=O)[C@]3(O)C(O)=C(C(N)=O)C(=O)C[C@@H]3[C@@H](O)[C@@H]21 [CMT-8, 6α-deoxy-5-hydroxy-4-dedimethylaminodoxycycline]
mM Fructosamine/mg protein (Mean ± SE) (skin collagen [4]): 0.118 ± 0.090 mM Fructosamine/mg protein
Reduction of glycosylation in treated diabetics (%) (skin collagen [4]): 68.7%

tetracycline pyrazole [CMT-5]
GSP levels (serum proteins [5]): substantially lower
mM Fructosamine/mg protein (Mean ± SE) (skin collagen [4]): 0.121 ± 0.050 mM Fructosamine/mg protein
Reduction of glycosylation in treated diabetics (%) (skin collagen [4]): 69.9%
gelatinase activity in the skin (gelatinase): normalized by all treatment groups (p<0.001) with the exception of CMT 5
anticollagenase properties (collagenase [6]): lost its anticollagenase properties
collagenase activity in the skin (collagenase [7]): normalized by all treatment groups (p<0.001) with the exception of CMT 5

CC1(O)c2cccc(O)c2C(O)=C2C(=O)C3C(O)=C(C(N)=O)C(=O)CC3CC21 (stereo not drawn) [CMT-7, 12a-deoxy-4-deoxy-4-dedimethylaminotetracycline]
mM Fructosamine/mg protein (Mean ± SE) (skin collagen [4]): 0.141 ± 0.086 mM Fructosamine/mg protein
Reduction of glycosylation in treated diabetics (%) (skin collagen [4]): 62.6%

CN(C)C1C(=O)C(C(N)=O)=C(O)C2(O)C(=O)C3=C(O)c4c(O)cccc4C(C)(O)C3CC12 (stereo not drawn) [tetracycline]
effectiveness against acne vulgaris ([8]; combination study with ibuprofen): effective agent against acne vulgaris

CC(C)Cc1ccc(C(C)C(=O)O)cc1 (stereo not drawn) [ibuprofen]
reduction of resulting inflammation in acne vulgaris ([8]; combination study with tetracycline): useful in reducing the resulting inflammation

N=C(N)NN [aminoguanidine]
inhibition of nonenzymatic glucose-derived collagen crosslinking (collagen): effective inhibitor

CC1(O)c2c(Cl)ccc(O)c2C(=O)C2=C(O)C3(O)C(=O)C(C(N)=O)=C(O)CC3CC21 (stereo not drawn) [CMT-4, 7-chloro-4-dedimethylaminotetracycline]
mM Fructosamine/mg protein (Mean ± SE) (skin collagen [4]): 0.236 ± 0.026 mM Fructosamine/mg protein
Reduction of glycosylation in treated diabetics (%) (skin collagen [4]): 37.4%

C[C@H]1c2cccc(O)c2C(O)=C2C(=O)[C@]3(O)C(O)=C(C(N)=O)C(=O)[C@@H](N(C)C)[C@@H]3[C@@H](O)[C@@H]21 [Doxycycline, reference compound]
fructosamine attached to serum protein (glycosylated serum protein) (serum protein): returned both of these parameters of abnormal glycosylation to essentially normal levels
glycosylation of skin collagen (skin collagen [9]): returned both of these parameters of abnormal glycosylation to essentially normal levels
severity of hyperglycemia (diabetic rats): does not reduce the severity of hyperglycemia in diabetic rats
mM Fructosamine/mg protein (Mean ± SE) (skin collagen [4]): 0.244 ± 0.050 mM Fructosamine/mg protein
Reduction of glycosylation in treated diabetics (%) (skin collagen [4]): 35.3%
gelatinase activity in the skin (gelatinase): normalized
Serum Fructosamine Concentration (serum proteins [10]; mean ± standard error, non-diabetic 1.33, untreated diabetics 3.82): 3.23 ± 0.20
fructosamine levels in the serum proteins (serum proteins [10]; vs untreated diabetics, p<0.05): significantly (p<0.05) reduced
collagenase activity in the skin (collagenase [7]): normalized

From patent US5532227A, “Tetracyclines including non-antimicrobial chemically-modified tetracyclines inhibit excessive glycosylation of different types of collagen and other proteins during diabetes” (The Research Foundation of State University of New York, priority 1994, dated 1996)
